# Measured values reported in patent EP0293880B1, “Antihyperlipidemic and antiatherosclerotic urea compounds” (priority 1987, dated 1988).
# Target: acyl-CoA:cholesterol acyl-transferase (ACAT)
# Assay: In vitro ACAT inhibition test (radio-labeled cholesterol oleate formed from radio-labeled oleic acid in rabbit intestinal microsomes)
# Format: biochemical
# Details: tissue preparation containing rabbit intestinal microsomes; concentration required to inhibit 50% expression of the enzyme; read-out: IC₅₀
# Experimental: The ability of representative compounds of the present invention to inhibit ACAT was measured using an in vitro test more fully described in Field, F. J. and Salone, R. G., Biochemica et Biophysica 712: 557-570 (1982). The test assesses the ability of a test compound to inhibit the acylation of cholesterol by oleic acid by measuring the amount of radio-labeled cholesterol oleate formed from radio-labeled oleic acid in a tissue preparation containing rabbit intestinal microsomes. The data appear in Table 1 where they are expressed as IC₅₀ values; i.e. the concentration of test compound required to inhibit 50% expression of the enzyme.
row,SMILES,IC50 [µM]
1,"CC(C)c1cccc(C(C)C)c1NC(=O)NC1(c2cccs2)CCCCC1 [Example 8, N-[2,6-bis(1-methylethyl)]-N'-[1-(2-thienyl)cyclohexyl]urea]",0.043
2,"Cc1cccc(C(C)(C)C)c1NC(=O)NC1(c2cccs2)CCCCC1 [Example 16, N-[2-(1,1-dimethylethyl)-6-methyl-phenyl]-N'-[1-(2-thienyl)cyclohexyl]urea]",0.256
3,"O=C(NCC1(c2ccccc2)CCCCC1)Nc1c(Br)cc(F)cc1Br [Example 26, N-(2,6-dibromo-4-fluorophenyl)-N'-[(1-phenyl-cyclohexyl)methyl]urea]",0.039
4,"CCc1cccc(CC)c1NC(=O)NCC1(c2ccccc2)CC1 [Example 4, N-(2,6-diethylphenyl)-N'-[(1-phenylcyclopropyl)methyl]urea]",0.088
5,"COc1cc(OC)c(NC(=O)NC2(c3ccccc3)CCCC2)c(OC)c1 [Example 5, N-(1-phenylcyclopentyl)-N'-(2,4,6-trimethoxyphenyl)urea]",0.7
6,"CCc1cccc(CC)c1NC(=O)NC1(c2cccs2)CCCCC1 [Example 7, N-(2,6-diethylphenyl)-N'-[1-(2-thienyl)cyclohexyl]urea]",0.048
7,"O=C(Nc1ccc(F)cc1F)NC1(c2cccs2)CCCCC1 [Example 23, N-(2,4-difluorophenyl)-N'-[1-(2-thienyl)cyclohexyl]urea]",0.37
8,"CCc1cccc(CC)c1NC(=O)NC1(c2ccccc2)CCCC1 [Example 3, N-(2,6-diethylphenyl)-N'-(1-phenylcyclopentyl)urea]",0.12
9,"Cc1cccc(C)c1NC(=O)NC1(c2cccs2)CCCCC1 [Example 6, N-(2,6-dimethylphenyl)-N'-[1-(2-thienyl)cyclohexyl]urea]",0.13
10,"Cc1cccc(C(C)C)c1NC(=O)NC1(c2cccs2)CCCCC1 [Example 15, N-[2-methyl-6-(1-methylethyl)-phenyl]-N'-[1-(2-thienyl)cyclohexyl]urea]",0.23
11,"CCc1cccc(CC)c1NC(=O)NC1(c2ccccc2)CCC1 [Example 2, N-(2,6-diethylphenyl)-N'-(1-phenylcyclobutyl)urea]",0.23

# Now from value to compound:
row,IC50 [µM],SMILES
1,0.016,"Cc1cccc(C(C)C)c1NC(=O)NCC1(c2ccccc2)CCCC1 [Example 20, N-[2-methyl-6-(1-methylethyl)-phenyl]-N'-[(1-phenylcyclopentyl)methyl]urea]"
2,0.02,"CCc1cccc(C(C)C)c1NC(=O)NCC1(c2ccccc2)CCCCC1 [Example 19, N-[2-ethyl-6-(1-methylethyl)-phenyl]-N'-[(1-phenylcyclohexyl)methyl]urea]"
3,0.054,"Cc1cccc(C(C)(C)C)c1NC(=O)NCC1(c2ccccc2)CCCCC1 [Example 18, N-[2-(1,1-dimethylethyl)-6-methylphenyl]-N'-[(1-phenylcyclohexyl)methyl]-urea]"
4,0.021,CC(C)c1cccc(C(C)C)c1NC(=O)NCC1(c2ccccc2)CCCCC1 [Example 14]
5,0.018,"Cc1cccc(C(C)(C)C)c1NC(=O)NCC1(c2ccccc2)CCCC1 [Example 21, N-[2-(1,1-dimethylethyl)-6-methylphenyl]-N'-[(1-phenylcyclopentyl)methyl]-urea]"
6,0.025,"CCc1cccc(C(C)C)c1NC(=O)NCC1(c2ccccc2)CCCC1 [Example 22, N-[2-ethyl-6-(1-methylethyl)-phenyl]-N'-[(1-phenylcyclopentyl)methyl]urea]"
7,0.081,"Cc1cccc(C)c1NC(=O)NCC1(c2ccccc2)CCCCC1 [Example 11, N-(2,6-dimethylphenyl)-N'-[(1-phenylcyclohexyl)methyl]urea]"
8,0.79,"O=C(NCC1(c2ccccc2)CCCCC1)Nc1ccc(F)cc1F [Example 25, N-(2,4-difluorophenyl)-N'-[(1-phenylcyclohexyl)methyl]urea]"
9,0.017,"CC(C)c1cccc(C(C)C)c1NC(=O)NCC1(c2ccccc2)CCCC1 [Example 13, N-[2,6-bis(1-methylethyl)phenyl]-N'-[(1-phenylcyclopentyl)methyl]urea]"
10,0.08,"Cc1cccc(C)c1NC(=O)NC1(c2ccccc2)CCCC1 [Example 1, N-(2,6-dimethylphenyl)-N'-(1-phenylcyclopentyl)urea]"
11,0.154,"Cc1cccc(C)c1NC(=O)NCC1(c2ccccc2)CCCC1 [Example 10, N-(2,6-dimethylphenyl)-N'-[(1-phenylcyclopentyl)methyl]urea]"
12,0.015,"CCc1cccc(CC)c1NC(=O)NCC1(c2ccccc2)CCCC1 [Example 12, N-(2,6-diethylphenyl)-N'-[(1-phenylcyclopentyl)methyl]urea]"
13,0.051,"CCc1cccc(CC)c1NC(=O)NCC1(c2ccccc2)CCCCC1 [Example 9, N-(2,6-diethylphenyl)-N'-[(1-phenylcyclohexyl)methyl]urea]"
14,0.058,"Cc1cccc(C(C)C)c1NC(=O)NCC1(c2ccccc2)CCCCC1 [Example 17, N-[2-methyl-6-(1-methylethyl)-phenyl]-N'-[(1-phenylcyclohexyl)methyl]urea]"
15,1.28,"O=C(NCC1(c2ccccc2)CCCC1)Nc1ccc(F)cc1F [Example 24, N-(2,4-difluorophenyl)-N'-[(1-phenylcyclopentyl)methyl]urea]"

# Tested on: not listed separately
# Assay: In vivo screen PCC (cholesterol-fed rats, total blood cholesterol)
# Set-up: species or system male Sprague-Dawley rats
# Details: change of total blood cholesterol versus control; 0.05% of the test drug in the diet; after one week
# Description: In one in vivo screen, designated PCC, male Sprague-Dawley rats (approximately 200 g body weight) are randomly divided into groups and provided ad libidum a regular chow diet (Purina No. 5002, Ralston Purina Co., 711 West Fuesser Road, Mascoutah, Illinois, 62224, USA), supplemented with 5.5% peanut oil, 1.5% cholesterol, and 0.3%-0.5% cholic acid, together with 0.05% of the test drug which is admixed into the diet. After one week the animals are etherized and a blood sample is taken from the heart and mixed with 0.14% ethylenediamine tetraacetic acid (EDTA) to measure the total cholesterol.
row,SMILES,% Change [%]
1,"CC(C)c1cccc(C(C)C)c1NC(=O)NC1(c2cccs2)CCCCC1 [Example 8, N-[2,6-bis(1-methylethyl)]-N'-[1-(2-thienyl)cyclohexyl]urea]",-69
2,"CC(C)c1cccc(C(C)C)c1NC(=O)NCC1(c2ccccc2)CCCC1 [Example 13, N-[2,6-bis(1-methylethyl)phenyl]-N'-[(1-phenylcyclopentyl)methyl]urea]",-73

# Same assay, conditions: rats on chow diet with 5.5% peanut oil, 1.5% cholesterol, 0.3%-0.5% cholic acid; 0.05% of the test drug admixed into the diet; after one week
row,SMILES,Total Blood Cholesterol
1,"CC(C)c1cccc(C(C)C)c1NC(=O)NC1(c2cccs2)CCCCC1 [Example 8, N-[2,6-bis(1-methylethyl)]-N'-[1-(2-thienyl)cyclohexyl]urea]",60 (Control = 181) mg/dl
2,"CC(C)c1cccc(C(C)C)c1NC(=O)NCC1(c2ccccc2)CCCC1 [Example 13, N-[2,6-bis(1-methylethyl)phenyl]-N'-[(1-phenylcyclopentyl)methyl]urea]",61 (Control = 224) mg/dl
